Measured values: patent publication US9180134B2, “Mitochondrial ribosomal proteins as aging regulators” (ECOLE POLYTECHNIQUE FEDERALE DE LAUSANNE (EPEL), priority 2011, dated 2015)

Columns and labels:
C. elegans [1] = experiment: Worm respiration assay (Seahorse XF24); type: in vivo; conditions: worms treated with antibiotic
Method: Treatments with antibiotics (carbenicillin, doxycycline, and chloramphenicol (all Sigma)) were performed with heat-killed bacteria (Wood et al., 2004, Nature 430, 686). Carbenicillin, doxycycline, and chloramphenicol were added at the indicated concentrations. Animals were exposed to antibiotics from eggs to L4 larval stage and then shifted on plates seeded with live OP50 bacteria. Oxygen consumption was measured using the Seahorse XF24 equipment (Seahorse Bioscience Inc., North Billerica, Mass.). Typically, 200 animals per conditions were recovered from NGM plates with M9 medium, washed three times in 2 mL M9 to eliminate residual bacteria, and resuspended in 500 μL M9 medium. Worms were transferred in 24-well standard Seahorse plates (#100777-004) (50 worms per well) and oxygen consumption was measured 6 times. Respiration rates were normalized to the number of worms in each individual well.

[2] = test system: mitochondrial unfolded protein response (UPR^mt); experiment: UPR^mt GFP reporter worms (hsp-6::GFP); type: in vivo, C. elegans; conditions: Day 1 adults
Method: Treatments with antibiotics (carbenicillin, doxycycline, and chloramphenicol (all Sigma)) were performed with heat-killed bacteria (Wood et al., 2004, Nature 430, 686). Carbenicillin, doxycycline, and chloramphenicol were added at the indicated concentrations. Animals were exposed to antibiotics from eggs to L4 larval stage and then shifted on plates seeded with live OP50 bacteria. GFP expression and quantification were carried out according to the protocol previously described (Durieux et al, 2011, Cell 144, 79). Briefly, GFP was monitored in Day 1 adults. Fluorimetric assays were performed using a Victor X4 multilabel plate reader (Perkin-Elmer Life Science). Eighty roller worms were picked at random (20 worms per well of a black-walled 96-well plate) and each well was read four times and averaged. Each experiment was repeated at least twice. For picture acquisition, animals were mounted on 2% agarose pads in a droplet of 10 mM tetramisole (Sigma) and examined using a Zeiss Axioplan-2 microscope (Carl Zeiss MicroImaging, Thornwood, N.Y., USA) equipped for both DIC and epifluorescence. Images were obtained using a Coolsnap ES^2 camera.

C. elegans [3] = experiment: Worm lifespan analysis; type: in vivo; conditions: antibiotic from eggs to L4 larval stage, heat-killed bacteria; 20° C
Method: Lifespan tests were performed as described (Mouchiroud et al., 2011, Aging Cell 10, 39). Briefly, 60-100 animals were used per conditions and scored every other day. All lifespan experiments were performed at 20° C. […] Treatments with antibiotics (carbenicillin, doxycycline, and chloramphenicol (all Sigma)) were performed with heat-killed bacteria (Wood et al., 2004, Nature 430, 686). Carbenicillin, doxycycline, and chloramphenicol were added at the indicated concentrations. Animals were exposed to antibiotics from eggs to L4 larval stage and then shifted on plates seeded with live OP50 bacteria.

[4] = test system: Hepa1-6 mouse liver cells; experiment: Oxygen consumption in Hepa1-6 cells (Seahorse XF24); type: cell-based; conditions: 48 h incubation, normalized for protein content
Method: (§1) Hepa1-6 mouse liver cells were maintained in DMEM medium containing 4.5 g/l glucose and 10% fetal calf serum. Hepa1-6 cells were incubated for 48 h with doxycycline or chloramphenicol (both Sigma) in medium containing 1 g/l glucose, with 1% (v/v) oleate-BSA (Sigma) supplementation, and without any other antibiotics. Oxygen consumption in Hepa1-6 cells was measured using the Seahorse XF24 equipment (Watanabe et al., 2006, Nature 439, 484), and normalized for protein content. ATP content was measured using CellTiter-Glo (Promega), according to the manufacturer's protocol.

C57BL/6N mice = experiment: Mouse indirect calorimetry (CLAMS); type: in vivo; conditions: C57BL/6 mice, chow containing doxycycline for 10 days, data not shown
Method: Wild type C57BL/6N mice were treated for 10 days with 50 mpkd doxycycline (Sigma) in food admix. Oxygen consumption (VO2), respiratory exchange ratios (RER), and activity were monitored by indirect calorimetry using the comprehensive laboratory animal monitoring system (CLAMS) (Columbus Instruments, Columbus, Ohio, USA).

[5] = test system: Hepa1-6 mouse liver cells; experiment: ATP content (CellTiter-Glo) in Hepa1-6 cells; type: cell-based; conditions: data not shown
Method: as §1

Row | activity (C57BL/6N mice) | food intake (C57BL/6N mice) | Compound | oxygen consumption (respiration) of C. elegans (C. elegans [1]) | UPR^mt induction in C. elegans [2] | lifespan of C. elegans (C. elegans [3]) | respiration (oxygen consumption) in Hepa1-6 cells [4] | body weight (C57BL/6N mice) | cell viability as measured by ATP levels [5]
1 |  |  | O=C(N[C@H](CO)[C@H](O)c1ccc([N+](=O)[O-])cc1)C(Cl)Cl [chloramphenicol] | decreased respiration | induced UPR^mt | extended lifespan | decreased respiration |  | 
2 | without changes | without changes | C[C@H]1c2cccc(O)c2C(=O)C2=C(O)[C@]3(O)C(=O)C(C(N)=O)=C(O)[C@@H](N(C)C)[C@@H]3[C@@H](O)[C@@H]21 [doxycycline] |  |  |  |  | without changes | without affecting cell viability
